Activity calls are given as the source filed them.
Columns and labels:
[1] = biological target: Cytochrome P450 2C9 (Homo sapiens, UniProt P11712)
[2] = biological target: Cytochrome P450 3A4 (Homo sapiens, UniProt P08684);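 note: CYP3A4 tested as one member of a cytochrome P450 panel screen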
[3] = test system: P388; test: cells; type: functional; settings: Mus musculus
[4] = test system: P388/ADR; test: cells; type: functional; settings: Mus musculus
[5] = test system: SN12K1; test: cells; type: functional; settings: Homo sapiens
[6] = biological target: T1, Leucine aminopeptidase (Plasmodium falciparum 3D7, UniProt Q8IL11); test: P. falciparum M17LAP inhibitors, primary screen, biochemical, fluorogenic H-Leu-NHMec substrate, 1536-well (AID 1619); type: functional
T1 sequence (Q8IL11 whole entry): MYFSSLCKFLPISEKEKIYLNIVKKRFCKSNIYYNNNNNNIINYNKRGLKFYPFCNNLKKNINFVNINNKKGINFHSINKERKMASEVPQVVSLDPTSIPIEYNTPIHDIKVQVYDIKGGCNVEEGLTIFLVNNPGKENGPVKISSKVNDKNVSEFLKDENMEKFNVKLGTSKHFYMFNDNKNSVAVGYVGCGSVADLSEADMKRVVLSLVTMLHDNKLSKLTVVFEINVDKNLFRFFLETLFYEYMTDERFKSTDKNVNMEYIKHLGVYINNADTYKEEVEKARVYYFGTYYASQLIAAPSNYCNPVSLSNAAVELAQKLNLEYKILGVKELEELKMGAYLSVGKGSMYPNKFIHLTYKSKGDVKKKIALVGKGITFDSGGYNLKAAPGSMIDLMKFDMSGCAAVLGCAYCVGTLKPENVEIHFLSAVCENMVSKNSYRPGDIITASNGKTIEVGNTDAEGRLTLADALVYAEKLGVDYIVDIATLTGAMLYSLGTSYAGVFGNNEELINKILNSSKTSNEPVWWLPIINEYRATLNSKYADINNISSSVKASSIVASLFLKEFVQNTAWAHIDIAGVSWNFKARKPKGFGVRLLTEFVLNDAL

[7] = biological target: T2, Rac GTPase-activating protein 1 (Homo sapiens, UniProt Q9H0H5); test: MgcRacGAP GTPase-activating activity inhibitors, confirmation, biochemical, ADP Hunter fluorescence, primary and confirmatory (AID 624330); type: functional
T2 sequence (Q9H0H5 whole entry): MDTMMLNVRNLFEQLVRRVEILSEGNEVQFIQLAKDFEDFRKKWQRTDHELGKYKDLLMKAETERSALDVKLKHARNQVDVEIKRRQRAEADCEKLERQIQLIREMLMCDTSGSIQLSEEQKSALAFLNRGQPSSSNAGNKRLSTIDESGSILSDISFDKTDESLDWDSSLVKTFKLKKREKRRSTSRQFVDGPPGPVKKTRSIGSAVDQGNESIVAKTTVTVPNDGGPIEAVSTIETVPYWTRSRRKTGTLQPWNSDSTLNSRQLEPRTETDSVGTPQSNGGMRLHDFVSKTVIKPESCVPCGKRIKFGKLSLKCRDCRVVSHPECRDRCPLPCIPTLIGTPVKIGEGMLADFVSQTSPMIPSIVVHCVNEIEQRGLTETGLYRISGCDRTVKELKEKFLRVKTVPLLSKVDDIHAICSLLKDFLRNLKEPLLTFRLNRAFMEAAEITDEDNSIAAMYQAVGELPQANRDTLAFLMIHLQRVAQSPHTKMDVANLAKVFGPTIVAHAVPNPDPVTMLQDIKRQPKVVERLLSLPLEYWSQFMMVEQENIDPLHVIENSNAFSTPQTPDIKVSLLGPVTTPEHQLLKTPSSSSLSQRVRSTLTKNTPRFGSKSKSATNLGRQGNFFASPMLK

[8] = biological target: Large T antigen (Simian virus 40, UniProt P03070); type: functional, Betapolyomavirus macacae;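 note: Confirmatory-stage PubChem screen for compounds that inhibit SV40 T antigen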
[9] = biological target: Cytochrome P450 2D6 (Homo sapiens, UniProt P10635);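 note: CYP2D6 member of a cytochrome P450 panel assay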
[10] = biological target: T3, Protein RecA (Mycobacterium tuberculosis, UniProt P9WHJ3); test: Fluorescence Cell-Free Homogeneous Dose Retest to Identify Inhibitors of RecA-Intein Splicing Activity. [Related pubchem assays (depositor defined):AID2097, AID2223, AID489010, AID492950]; type: functional
T3 sequence (P9WHJ3 whole entry): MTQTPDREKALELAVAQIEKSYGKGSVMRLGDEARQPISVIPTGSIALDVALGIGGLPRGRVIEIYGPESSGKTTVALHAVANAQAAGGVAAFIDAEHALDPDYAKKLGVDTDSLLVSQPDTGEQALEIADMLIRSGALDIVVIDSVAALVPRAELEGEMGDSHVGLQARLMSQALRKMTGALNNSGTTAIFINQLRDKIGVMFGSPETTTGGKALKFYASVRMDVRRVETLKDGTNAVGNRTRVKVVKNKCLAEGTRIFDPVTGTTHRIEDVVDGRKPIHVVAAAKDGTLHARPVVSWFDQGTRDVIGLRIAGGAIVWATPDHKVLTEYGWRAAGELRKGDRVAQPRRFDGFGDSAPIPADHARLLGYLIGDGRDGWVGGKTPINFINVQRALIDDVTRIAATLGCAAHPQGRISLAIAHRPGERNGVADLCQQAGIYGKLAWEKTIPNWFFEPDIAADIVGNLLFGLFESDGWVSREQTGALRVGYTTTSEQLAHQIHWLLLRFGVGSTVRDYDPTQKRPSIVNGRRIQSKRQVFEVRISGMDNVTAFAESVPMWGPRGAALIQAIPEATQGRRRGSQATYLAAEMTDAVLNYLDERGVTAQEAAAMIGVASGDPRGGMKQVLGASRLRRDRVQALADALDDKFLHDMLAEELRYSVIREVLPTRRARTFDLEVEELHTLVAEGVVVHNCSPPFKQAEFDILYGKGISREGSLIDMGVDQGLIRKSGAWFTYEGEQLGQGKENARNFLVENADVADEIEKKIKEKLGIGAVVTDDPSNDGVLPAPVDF

[11] = biological target: T4, Replicative DNA helicase DnaB (Mycobacterium tuberculosis, UniProt P9WMR3); test: DnaB intein splicing inhibitors, dose response, biochemical, cell-free fluorescence (AID 449749); type: functional
T4 sequence (P9WMR3 whole entry): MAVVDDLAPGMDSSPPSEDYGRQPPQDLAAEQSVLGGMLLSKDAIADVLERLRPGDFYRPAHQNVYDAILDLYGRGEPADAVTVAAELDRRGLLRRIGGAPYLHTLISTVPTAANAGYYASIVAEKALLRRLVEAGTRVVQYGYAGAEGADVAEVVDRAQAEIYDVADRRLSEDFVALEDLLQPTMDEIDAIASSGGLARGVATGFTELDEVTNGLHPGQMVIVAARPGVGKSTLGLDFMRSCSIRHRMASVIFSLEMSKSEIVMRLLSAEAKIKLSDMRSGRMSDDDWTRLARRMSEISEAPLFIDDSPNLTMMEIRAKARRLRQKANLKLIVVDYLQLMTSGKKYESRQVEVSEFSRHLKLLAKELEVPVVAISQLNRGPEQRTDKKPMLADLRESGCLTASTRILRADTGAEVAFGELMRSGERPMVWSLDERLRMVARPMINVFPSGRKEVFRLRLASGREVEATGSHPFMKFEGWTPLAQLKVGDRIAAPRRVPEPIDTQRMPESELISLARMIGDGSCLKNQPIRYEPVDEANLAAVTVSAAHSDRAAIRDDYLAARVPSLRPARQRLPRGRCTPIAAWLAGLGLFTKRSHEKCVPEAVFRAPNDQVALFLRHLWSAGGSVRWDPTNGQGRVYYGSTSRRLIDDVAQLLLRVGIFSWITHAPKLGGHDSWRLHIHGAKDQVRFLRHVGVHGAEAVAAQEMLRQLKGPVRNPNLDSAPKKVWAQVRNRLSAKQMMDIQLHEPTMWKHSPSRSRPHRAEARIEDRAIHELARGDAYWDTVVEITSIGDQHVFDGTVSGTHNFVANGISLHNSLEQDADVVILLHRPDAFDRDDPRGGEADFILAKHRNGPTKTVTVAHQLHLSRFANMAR

[12] = biological target: Cytochrome P450 2C19 (Homo sapiens, UniProt P33261); test: Cytochrome panel assay with activity outcomes. Panel member name: p450-cyp2c19 Compounds with AC50 equal or less than 10 uM are considered active; type: functional; settings: read-out: AC50
[13] = biological target: T5, Zinc finger protein mex-5 (Caenorhabditis elegans, UniProt Q9XUB2); test: MEX-5/TCR-2 RNA interaction inhibitors, dose response, biochemical, C. elegans, fluorescence polarization (AID 1960)
T5 sequence (Q9XUB2 whole entry): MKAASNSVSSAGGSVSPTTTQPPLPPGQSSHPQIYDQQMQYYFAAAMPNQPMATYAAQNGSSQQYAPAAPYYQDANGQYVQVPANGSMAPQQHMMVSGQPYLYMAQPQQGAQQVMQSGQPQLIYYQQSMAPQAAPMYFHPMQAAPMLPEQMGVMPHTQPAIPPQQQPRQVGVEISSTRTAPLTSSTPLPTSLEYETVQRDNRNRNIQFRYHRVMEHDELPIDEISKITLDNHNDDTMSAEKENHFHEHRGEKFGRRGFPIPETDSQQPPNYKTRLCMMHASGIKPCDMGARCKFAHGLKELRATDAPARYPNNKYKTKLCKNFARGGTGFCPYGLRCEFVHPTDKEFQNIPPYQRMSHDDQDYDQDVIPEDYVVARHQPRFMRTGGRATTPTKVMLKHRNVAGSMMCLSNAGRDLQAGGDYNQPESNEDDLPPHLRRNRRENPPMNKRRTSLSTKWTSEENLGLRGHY

[14] = biological target: T6, Polyadenylate-binding protein 1 (Homo sapiens, UniProt P11940); test: PABP1 MLLE–PAM2 binding inhibitor potency, dose response, biochemical, fluorescence polarization, FITC-PAM2 peptide (AID 602259); type: functional; settings: read-out: IC50_Mean
[15] = biological target: T6, Polyadenylate-binding protein 1; test: PABP1 MLLE–PAM2 interaction inhibitors, dose response, miRNA deadenylation inhibitor project, biochemical, fluorescence polarization, Cy5-PAM2 peptide, secondary (AID 602260); type: functional; settings: read-out: IC50_Mean
[16] = biological target: T7, RNA-binding protein pos-1 (Caenorhabditis elegans, UniProt G5EF15); test: inhibitors of POS-1/mex-3 RNA binding, dose response, biochemical, fluorescence polarization (AID 1964);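 note: purified POS-1 fused to maltose binding protein made in E. coli; potency of compounds blocking POS-1 binding to fluorescent RNA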
T7 sequence (G5EF15 whole entry): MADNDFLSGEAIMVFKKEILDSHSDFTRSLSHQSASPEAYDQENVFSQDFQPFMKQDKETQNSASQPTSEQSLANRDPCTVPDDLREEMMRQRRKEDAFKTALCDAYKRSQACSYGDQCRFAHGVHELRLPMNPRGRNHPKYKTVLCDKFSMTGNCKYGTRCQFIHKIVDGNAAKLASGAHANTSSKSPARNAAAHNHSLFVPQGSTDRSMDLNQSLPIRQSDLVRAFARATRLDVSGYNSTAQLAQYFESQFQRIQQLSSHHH

[17] = biological target: T8, Cytochrome P450 1A2 (Homo sapiens, UniProt P05177);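 note: PubChem cytochrome P450 panel assay, CYP1A2 panel member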
T8 sequence (P05177 whole entry): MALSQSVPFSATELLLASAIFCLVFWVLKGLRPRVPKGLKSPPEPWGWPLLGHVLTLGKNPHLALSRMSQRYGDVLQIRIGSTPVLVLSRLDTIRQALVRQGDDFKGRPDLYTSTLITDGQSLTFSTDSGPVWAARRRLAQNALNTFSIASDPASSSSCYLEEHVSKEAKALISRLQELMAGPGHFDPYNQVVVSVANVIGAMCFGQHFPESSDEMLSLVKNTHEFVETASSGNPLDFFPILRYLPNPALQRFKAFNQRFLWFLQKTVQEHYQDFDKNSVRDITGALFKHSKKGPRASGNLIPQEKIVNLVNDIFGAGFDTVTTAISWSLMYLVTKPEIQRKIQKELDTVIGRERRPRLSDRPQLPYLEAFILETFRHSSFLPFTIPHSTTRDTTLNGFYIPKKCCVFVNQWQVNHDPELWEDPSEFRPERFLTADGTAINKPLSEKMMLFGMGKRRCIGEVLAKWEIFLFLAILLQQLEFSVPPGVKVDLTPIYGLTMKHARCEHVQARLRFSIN

Chain of Cytochrome P450 2D6 (P10635 whole entry): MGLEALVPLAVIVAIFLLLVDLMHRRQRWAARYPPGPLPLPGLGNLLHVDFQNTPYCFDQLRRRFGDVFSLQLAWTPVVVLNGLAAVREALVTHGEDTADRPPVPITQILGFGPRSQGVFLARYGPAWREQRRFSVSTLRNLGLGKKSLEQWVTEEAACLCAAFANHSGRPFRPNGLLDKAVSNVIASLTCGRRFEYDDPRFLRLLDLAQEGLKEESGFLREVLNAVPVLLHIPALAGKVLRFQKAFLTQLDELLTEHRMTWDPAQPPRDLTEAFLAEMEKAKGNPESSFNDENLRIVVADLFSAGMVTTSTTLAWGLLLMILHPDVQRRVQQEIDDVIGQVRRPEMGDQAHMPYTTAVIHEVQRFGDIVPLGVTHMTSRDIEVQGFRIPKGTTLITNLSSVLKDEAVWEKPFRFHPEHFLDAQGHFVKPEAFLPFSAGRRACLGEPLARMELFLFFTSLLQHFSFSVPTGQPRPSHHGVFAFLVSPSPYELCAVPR
Chain of Cytochrome P450 2C9 (P11712 whole entry): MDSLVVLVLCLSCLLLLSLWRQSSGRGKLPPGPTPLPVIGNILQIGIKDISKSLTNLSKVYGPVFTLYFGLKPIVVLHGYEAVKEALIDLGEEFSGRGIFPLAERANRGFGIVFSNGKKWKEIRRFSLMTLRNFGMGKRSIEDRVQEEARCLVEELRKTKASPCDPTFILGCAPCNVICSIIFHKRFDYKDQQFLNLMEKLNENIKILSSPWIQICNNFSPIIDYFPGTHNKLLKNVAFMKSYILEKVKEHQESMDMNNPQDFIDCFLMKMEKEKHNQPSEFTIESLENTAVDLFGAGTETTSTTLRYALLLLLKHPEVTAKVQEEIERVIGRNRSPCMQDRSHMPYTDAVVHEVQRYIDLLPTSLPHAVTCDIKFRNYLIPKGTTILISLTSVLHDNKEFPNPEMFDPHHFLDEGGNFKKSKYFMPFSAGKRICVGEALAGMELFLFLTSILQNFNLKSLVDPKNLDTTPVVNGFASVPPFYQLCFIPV
T6 sequence (P11940 whole entry): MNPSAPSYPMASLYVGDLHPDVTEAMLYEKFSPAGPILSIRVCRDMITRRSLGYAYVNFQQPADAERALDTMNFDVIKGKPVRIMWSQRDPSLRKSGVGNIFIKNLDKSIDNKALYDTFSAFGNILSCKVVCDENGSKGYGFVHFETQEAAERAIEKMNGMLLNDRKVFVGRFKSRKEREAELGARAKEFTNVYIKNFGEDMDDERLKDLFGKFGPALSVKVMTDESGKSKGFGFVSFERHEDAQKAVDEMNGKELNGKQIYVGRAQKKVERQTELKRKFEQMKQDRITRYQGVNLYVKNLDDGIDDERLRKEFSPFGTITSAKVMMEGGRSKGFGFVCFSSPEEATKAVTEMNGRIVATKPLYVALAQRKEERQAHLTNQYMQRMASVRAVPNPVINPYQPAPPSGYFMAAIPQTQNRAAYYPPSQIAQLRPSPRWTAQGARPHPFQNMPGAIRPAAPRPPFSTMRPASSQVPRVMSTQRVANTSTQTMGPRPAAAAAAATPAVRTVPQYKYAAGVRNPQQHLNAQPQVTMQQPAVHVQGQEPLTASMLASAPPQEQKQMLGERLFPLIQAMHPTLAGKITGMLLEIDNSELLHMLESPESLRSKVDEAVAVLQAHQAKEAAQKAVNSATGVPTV
Chain of Cytochrome P450 2C19 (P33261 whole entry): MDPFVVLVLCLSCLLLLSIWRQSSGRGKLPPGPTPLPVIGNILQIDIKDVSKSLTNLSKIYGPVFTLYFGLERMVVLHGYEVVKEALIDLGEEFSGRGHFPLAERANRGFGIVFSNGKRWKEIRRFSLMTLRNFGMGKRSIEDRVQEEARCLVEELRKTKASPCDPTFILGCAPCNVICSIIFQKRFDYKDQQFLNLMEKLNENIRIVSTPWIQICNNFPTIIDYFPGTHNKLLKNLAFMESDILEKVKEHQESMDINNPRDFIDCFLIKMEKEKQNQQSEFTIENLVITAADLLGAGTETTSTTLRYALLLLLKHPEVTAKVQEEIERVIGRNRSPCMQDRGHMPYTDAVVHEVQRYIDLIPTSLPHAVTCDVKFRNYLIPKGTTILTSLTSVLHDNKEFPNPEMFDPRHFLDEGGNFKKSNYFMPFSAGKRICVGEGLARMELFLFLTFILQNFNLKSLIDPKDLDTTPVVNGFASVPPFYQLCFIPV
Chain of Large T antigen (P03070 whole entry): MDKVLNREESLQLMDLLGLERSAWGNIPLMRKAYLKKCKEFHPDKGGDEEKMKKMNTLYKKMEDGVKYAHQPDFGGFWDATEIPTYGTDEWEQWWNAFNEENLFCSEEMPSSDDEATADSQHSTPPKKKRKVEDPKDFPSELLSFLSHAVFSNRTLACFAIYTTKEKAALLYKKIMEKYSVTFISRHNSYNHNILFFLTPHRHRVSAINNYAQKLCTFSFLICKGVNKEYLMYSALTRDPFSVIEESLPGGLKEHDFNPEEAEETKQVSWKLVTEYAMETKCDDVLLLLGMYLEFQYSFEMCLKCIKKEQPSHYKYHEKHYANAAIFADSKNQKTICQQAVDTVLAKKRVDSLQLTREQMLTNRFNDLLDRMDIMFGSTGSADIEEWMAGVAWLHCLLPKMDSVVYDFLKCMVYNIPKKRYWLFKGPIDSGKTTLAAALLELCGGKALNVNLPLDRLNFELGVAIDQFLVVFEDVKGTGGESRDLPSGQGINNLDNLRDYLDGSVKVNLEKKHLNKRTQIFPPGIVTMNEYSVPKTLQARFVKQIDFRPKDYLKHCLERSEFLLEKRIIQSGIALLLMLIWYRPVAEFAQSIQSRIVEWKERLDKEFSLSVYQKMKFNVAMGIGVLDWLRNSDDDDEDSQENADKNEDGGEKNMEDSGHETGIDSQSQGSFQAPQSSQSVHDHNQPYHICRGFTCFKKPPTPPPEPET
Chain of Cytochrome P450 3A4 (P08684 whole entry): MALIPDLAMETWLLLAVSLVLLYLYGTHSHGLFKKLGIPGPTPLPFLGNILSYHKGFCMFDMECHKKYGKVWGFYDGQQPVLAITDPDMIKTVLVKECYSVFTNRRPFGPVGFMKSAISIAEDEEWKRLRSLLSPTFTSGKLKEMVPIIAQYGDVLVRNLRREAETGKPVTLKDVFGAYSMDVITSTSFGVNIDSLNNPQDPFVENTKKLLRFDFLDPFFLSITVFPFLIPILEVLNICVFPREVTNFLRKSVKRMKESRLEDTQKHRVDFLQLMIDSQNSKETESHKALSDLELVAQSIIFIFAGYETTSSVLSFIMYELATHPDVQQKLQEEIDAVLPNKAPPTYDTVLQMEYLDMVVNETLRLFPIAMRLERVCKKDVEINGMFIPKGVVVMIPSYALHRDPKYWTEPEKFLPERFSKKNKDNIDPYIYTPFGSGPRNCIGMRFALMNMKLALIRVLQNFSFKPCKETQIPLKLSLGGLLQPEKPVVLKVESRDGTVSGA

## Cc1ccccc1C(=O)NN(C)c1nc2ccccc2nc1C(F)(F)F
[1]
  AC50: inconclusive
[2]
  AC50: 7.08 µM (inconclusive)

## NC(Cc1c[nH]c2ccccc12)C(=O)O (stereo not drawn) [DL-TRYPTOPHAN]
[3]
  GI50: 269 µM (inactive)
[4]
  GI50: > 300 µM (inactive)
[5]
  GI50: > 300 µM (inactive)

## O=C1C2C3C=CC(CC3)C2C(=O)N1/N=C/c1ccc(O)c(O)c1 (stereo not given)
[6]
  IC50: 34.3 µM (active)
[7]
  IC50: 74 µM (active)
[8]
  IC50: 4.4 µM (active)

## COCCO [2-METHOXYETHANOL]
[3]
  GI50: > 100 µM (inactive)
[4]
  GI50: > 100 µM (inactive)
[5]
  GI50: > 100 µM (inactive)

## CC[C@](O)(C(=O)O)c1cc2n(c(=O)c1CO)Cc1cc3ccccc3nc1-2
[3]
  GI50: 0.025 µM (active)
[4]
  GI50: 0.03 µM (active)
[5]
  GI50: 0.209 µM (active)

## CCn1c(SC)nnc1C1CCN(S(=O)(=O)c2ccc(OC)cc2)CC1
[9]
  AC50: 8.91 µM (inconclusive)
[1]
  AC50: inconclusive

## Cc1ccc(-c2n[nH]c3c2C(C)C(C#N)=C(N)O3)cc1 (stereo not given)
[10]
  EC50: 0.518 µM (active)
[6]
  IC50: 16.3 µM (active)
[11]
  AC50: > 380 µM (inconclusive)

## CS(=O)(=O)Nc1cccc(-c2cc(Nc3ccccc3)ncn2)c1
[9]
  AC50: 25.1 µM (inconclusive)
[1]
  AC50: inconclusive
[12]
  AC50: 31.6 µM (inconclusive)

## COc1ccc(CNc2nc(-c3ccccc3CN(C)C)nc3ccccc23)c(OC)c1
[1]
  AC50: inconclusive
[12]
  AC50: 15.8 µM (inconclusive)

## Nc1cccc2c1C(=O)N(Cc1nnc(-c3ccccc3Br)o1)C2=O
[13]
  EC50: 29.4 µM (active)
[14]
  IC50: 48.1 µM (inactive)
[15]
  IC50: > 66 µM (inactive)
[16]
  EC50: 40 µM (active)

## O/N=C/c1c[nH]c2ccccc12
[6]
  IC50: 13.2 µM (active)

## CCCCCCCCCCCCCCCCCC(=O)NC[C@@H](COP(=O)([O-])OCC[N+](C)(C)C)OCC
[9]
  AC50: 39.8 µM (inconclusive)
[1]
  AC50: inconclusive
[17]
  AC50: 39.8 µM (inconclusive)

## NC1CCCCC1
[3]
  GI50: 92.9 µM (inactive)
[5]
  GI50: 243 µM (inactive)

## CC(C)(C)C1CCc2c(C(=O)NNC(=O)CCCC(=O)O)csc2C1 (stereo not given)
[6]
  IC50: 11.6 µM (active)

Source: ChEMBL document CHEMBL1201862, “PubChem BioAssay data set” (2004)
